Molecules are shown by their SMILES. A value given as a limit tells only on which side of the number the result lay.

The values below come from patent US5986131A, “RXR selective ligands” (Hoffmann-La Roche Inc., priority 1997, dated 1999).

Assay [1] concerns the target T1, RARα (Homo sapiens, UniProt P10276).
T1 sequence (P10276 1-462): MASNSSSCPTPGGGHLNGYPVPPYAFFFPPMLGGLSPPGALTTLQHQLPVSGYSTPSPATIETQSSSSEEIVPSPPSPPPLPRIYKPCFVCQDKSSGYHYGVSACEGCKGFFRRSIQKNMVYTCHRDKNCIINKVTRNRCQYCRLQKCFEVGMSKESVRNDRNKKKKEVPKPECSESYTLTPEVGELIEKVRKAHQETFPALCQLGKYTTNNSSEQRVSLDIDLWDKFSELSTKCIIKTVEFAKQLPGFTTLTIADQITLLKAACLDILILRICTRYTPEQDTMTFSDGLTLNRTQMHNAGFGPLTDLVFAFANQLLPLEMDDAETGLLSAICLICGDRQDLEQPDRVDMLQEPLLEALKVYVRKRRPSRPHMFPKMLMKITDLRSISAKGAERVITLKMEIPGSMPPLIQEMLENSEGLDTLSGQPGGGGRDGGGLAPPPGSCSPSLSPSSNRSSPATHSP
Kind of assay: RARα activation (transactivation). Type of assay: cell-based. The settings on record: Table 6. An excerpt:
(§1) Methods essentially as described in those publications were used to determine the binding and transactivation properties of retinoids reported in the Examples herein.

Assay [2] has as its target T2, RAR β (Homo sapiens, UniProt P10826).
T2 sequence (P10826 1-455): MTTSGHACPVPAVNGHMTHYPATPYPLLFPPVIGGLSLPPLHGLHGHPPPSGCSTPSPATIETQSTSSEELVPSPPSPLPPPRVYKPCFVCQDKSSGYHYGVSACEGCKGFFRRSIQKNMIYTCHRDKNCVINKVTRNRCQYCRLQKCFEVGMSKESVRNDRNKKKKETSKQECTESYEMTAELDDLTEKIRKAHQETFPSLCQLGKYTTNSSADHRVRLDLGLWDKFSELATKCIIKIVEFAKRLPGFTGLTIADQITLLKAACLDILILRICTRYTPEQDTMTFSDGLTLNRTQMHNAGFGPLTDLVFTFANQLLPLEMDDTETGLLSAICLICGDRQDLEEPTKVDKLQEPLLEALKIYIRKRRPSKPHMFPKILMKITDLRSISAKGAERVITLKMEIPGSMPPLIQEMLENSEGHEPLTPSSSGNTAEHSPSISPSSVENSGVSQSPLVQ
Put plainly: RARβ activation (transactivation). The following applies: Table 6. Type of assay: cell-based. An excerpt: (§2) Methods for determining the binding and transactivation properties of retinoids with regard to the RAR receptors and RXR receptors are known in the art, e.g., Levin et al., Nature, 355:359-361 (Jan. 23, 1992); Allenby et al., Proc. Natl. Acad. Sci. USA, 90:30-34 (January, 1993); Allenby et al., J. Biol. Chem., 269:16689-16695 (Jun. 17, 1994). Methods essentially as described in those publications were used to determine the binding and transactivation properties of retinoids reported in the Examples herein.
(§3) Retinoid receptor binding and transactivation assays were performed on Compound B and Example 6 as described above.

The target in assay [3] is T3, RAR γ (Homo sapiens, UniProt P13631).
T3 sequence (P13631 1-454): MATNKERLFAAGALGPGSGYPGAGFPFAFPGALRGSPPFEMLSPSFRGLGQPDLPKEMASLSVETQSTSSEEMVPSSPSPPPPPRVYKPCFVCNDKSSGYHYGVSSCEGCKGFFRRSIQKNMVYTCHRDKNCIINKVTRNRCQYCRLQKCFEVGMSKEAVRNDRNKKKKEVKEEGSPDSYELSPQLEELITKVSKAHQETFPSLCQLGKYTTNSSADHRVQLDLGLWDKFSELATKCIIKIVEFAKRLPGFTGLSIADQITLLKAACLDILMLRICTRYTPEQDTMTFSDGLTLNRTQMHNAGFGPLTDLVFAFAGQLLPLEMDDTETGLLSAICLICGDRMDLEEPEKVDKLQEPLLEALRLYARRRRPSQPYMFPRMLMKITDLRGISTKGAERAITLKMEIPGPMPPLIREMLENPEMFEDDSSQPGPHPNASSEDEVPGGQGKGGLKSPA
Kind of assay: RARγ activation (transactivation). Type of assay: cell-based. The settings on record: Table 6; @ 1000 nM; read-out: RAR Activation % max (γ).
Source text: as §2, §3

The subject of another assay is T47-D. Put plainly: T47-D breast carcinoma cell growth inhibition (MTT), combination. The assay is classed as cell-based, human. The settings on record: Compound B plus constant concentration of Example 6; FIG. 7. As for the experimental part: The compound of Example 6 was tested for its ability to inhibit a human breast carcinoma cell line in combination with a retinoid having RARα activity, all-E-3,7-dimethyl-9-[(2-methoxy-4-methyl-6-octyloxy)phenyl]-2,4,6,8-nonatetraenoic acid (Compound B), as shown: [drawing 7]
Breast carcinoma cell line, T47-D, obtained from the ATCC [Accession No. HTB133] was grown in RPMI 1640 media supplemented with 10% FBS, 10 μg/ml insulin and 13 ng/ml gentamicin, and incubated at 37° C., 4.5% CO2 and 95.5% humidified air. The cells were harvested upon reaching 70-80% confluency and pelleted. The cells were resuspended in the media and seeded (150 μl/well) into 96-well plates (Corning) at a density allowing linear growth over a seven day assay period (i.e., T47-D seeded at 4×10^3 cells/well). […]
Liquid was removed by aspiration, 50 μl 95% ethanol was added, and the plates were shaken (Mini-Orbital Shaker, Bellco) for 15 minutes to solubilize the formazan product. The optical density of each well was measured using an automatic plate reader (Microplate EL320 Reader, Bio-Tek Instruments) with a test wavelength of 570 nm and a reference wavelength of 660 nm. The amount of cell growth inhibition caused by various concentrations of Compound B in combination with a constant concentration of the compound of Example 6 was determined in accordance with the following equation: [formula]

In a further assay the target is T4, RXRα (Homo sapiens, UniProt P19793).
T4 sequence (P19793 1-462): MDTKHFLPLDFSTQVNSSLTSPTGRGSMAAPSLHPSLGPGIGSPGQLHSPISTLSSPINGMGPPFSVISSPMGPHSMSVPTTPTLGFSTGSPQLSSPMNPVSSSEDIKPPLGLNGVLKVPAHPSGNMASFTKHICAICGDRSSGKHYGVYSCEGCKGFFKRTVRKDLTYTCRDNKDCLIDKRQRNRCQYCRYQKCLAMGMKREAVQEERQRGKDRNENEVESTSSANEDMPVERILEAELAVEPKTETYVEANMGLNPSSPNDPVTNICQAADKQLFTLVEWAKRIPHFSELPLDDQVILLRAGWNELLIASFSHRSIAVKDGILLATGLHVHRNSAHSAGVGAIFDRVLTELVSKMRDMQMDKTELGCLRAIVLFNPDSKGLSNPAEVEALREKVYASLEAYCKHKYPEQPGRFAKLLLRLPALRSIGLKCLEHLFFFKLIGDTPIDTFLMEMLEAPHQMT
Kind of assay: RXRα activation (transactivation). The assay is classed as cell-based. The following applies: Table 6; @ 1000 nM; read-out: RXR Activation % max (α).
Source text: as §1

The target in assay [4] is T1, RARα. Put plainly: RARα binding. The settings on record: Table 6; read-out: RAR Binding IC50 (α).
Source text: as §1

Assay [5] has as its target T2, RAR β. Kind of assay: RARβ binding. The following applies: Table 6.
Source text: as §2, §3

Assay [6] addresses T3, RAR γ. Put plainly: RARγ binding. The following applies: Table 6.
Source text: as §2, §3

Turning to `CC1=C(/C=C/C2=C(/C=C/C(C)=C/C(=O)O)CCCCC2)C(C)(C)CCC1` [Example 6, (2E,4E)-3-Methyl-5-(2-((E)-2(2,6,6-trimethyl-1-cyclohexen-1-yl)ethenyl)-1-cyclohepten-1-yl)-2,4-pentadienoic acid], the Emax at 1 µM at RARα [1] (@ 1000 nM, read-out: RAR Activation % max (α)) is 4%; at RAR β [2] (@ 1000 nM, read-out: RAR Activation % max (β)) it was 8%; on RAR γ [3] it was 9%. For the same compound, the “antiproliferative activity in breast cancer cell line in combination (potentiation of Compound B)” value in the assay on T47-D is recorded as “Enhanced antiproliferative activity”.
One may read the EC50 as the midpoint of the concentration-response curve. One may read the IC50 as the concentration that inhibits the measured activity by half. Regarding `CCCCCCCCOc1cc(C)cc(OC)c1/C=C/C(C)=C/C=C/C(C)=C/C(=O)O` [Compound B, all-E-3,7-dimethyl-9-[(2-methoxy-4-methyl-6-octyloxy)phenyl]-2,4,6,8-nonatetraenoic acid], the EC50 was determined as 11 nM at RARα [1] (read-out: RAR Activation EC50 (α)) and 5.3 nM at RAR β [2]. Moreover, the Emax at 1 µM at RXRα is 0%; on RAR γ [3], 48%. For the same compound, the concentration for half-maximal inhibition (IC50) on RARα [4] is 240 nM; on RAR β [5], 500 nM; at RAR γ [6] it was > 10 µM.
